Activity calls are given as the source filed them. The calls are words filed in the database; no cut-off is given here.
Assays:
[1] = molecular target: T1, Signal transducer and activator of transcription 5A (Homo sapiens, UniProt P42229); experiment: (§1) Inhibition of 5-carboxyfluorescein-GpYLVLDKW-OH binding to C-terminal 6x-His-tagged and an N-terminal maltose-binding protein-tagged STAT5A SH2 domain (137 to 507 residues) (unknown origin) expressed in Escherichia coli Rosetta BL21 DE3 pre-incubated for 1 hr before fluorescent-labelled peptide addition by fluorescence polarization assay
T1 sequence (P42229 whole entry): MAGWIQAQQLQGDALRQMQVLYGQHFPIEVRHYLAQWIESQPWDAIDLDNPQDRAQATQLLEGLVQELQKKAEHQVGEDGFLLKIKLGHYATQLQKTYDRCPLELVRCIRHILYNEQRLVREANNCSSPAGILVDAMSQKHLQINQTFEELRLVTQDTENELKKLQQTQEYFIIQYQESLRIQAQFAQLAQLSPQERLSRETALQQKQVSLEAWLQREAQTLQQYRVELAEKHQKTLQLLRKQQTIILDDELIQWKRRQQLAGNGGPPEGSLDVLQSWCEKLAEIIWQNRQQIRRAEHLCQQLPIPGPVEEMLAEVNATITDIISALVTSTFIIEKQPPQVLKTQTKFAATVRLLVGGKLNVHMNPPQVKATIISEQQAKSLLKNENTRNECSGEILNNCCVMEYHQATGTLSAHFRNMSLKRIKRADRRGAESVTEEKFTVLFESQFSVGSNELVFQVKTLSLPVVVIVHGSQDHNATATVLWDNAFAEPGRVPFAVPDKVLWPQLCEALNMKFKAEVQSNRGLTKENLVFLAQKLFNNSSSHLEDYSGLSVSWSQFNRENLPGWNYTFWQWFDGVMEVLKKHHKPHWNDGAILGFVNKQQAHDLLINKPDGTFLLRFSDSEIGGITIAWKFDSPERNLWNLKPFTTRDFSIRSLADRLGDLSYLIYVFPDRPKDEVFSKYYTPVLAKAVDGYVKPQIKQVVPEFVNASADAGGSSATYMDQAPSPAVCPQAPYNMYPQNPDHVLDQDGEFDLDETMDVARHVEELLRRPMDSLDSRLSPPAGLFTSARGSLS

[2] = molecular target: T2, Signal transducer and activator of transcription 5A (Homo sapiens) (UniProt P42229); experiment: as §1, with “DE3 at 50 uM” for “DE3”
T2 sequence (whole entry): T1 sequence (P42229 whole entry)

[3] = molecular target: T3, Signal transducer and activator of transcription 1-alpha/beta (Homo sapiens, UniProt P42224); experiment: Inhibition of 5-carboxyfluorescein-GpYDKPHVL-OH binding to STAT1 (unknown origin) pre-incubated for 1 hr before fluorescent-labelled peptide addition by fluorescence polarization assay
T3 sequence (P42224 whole entry): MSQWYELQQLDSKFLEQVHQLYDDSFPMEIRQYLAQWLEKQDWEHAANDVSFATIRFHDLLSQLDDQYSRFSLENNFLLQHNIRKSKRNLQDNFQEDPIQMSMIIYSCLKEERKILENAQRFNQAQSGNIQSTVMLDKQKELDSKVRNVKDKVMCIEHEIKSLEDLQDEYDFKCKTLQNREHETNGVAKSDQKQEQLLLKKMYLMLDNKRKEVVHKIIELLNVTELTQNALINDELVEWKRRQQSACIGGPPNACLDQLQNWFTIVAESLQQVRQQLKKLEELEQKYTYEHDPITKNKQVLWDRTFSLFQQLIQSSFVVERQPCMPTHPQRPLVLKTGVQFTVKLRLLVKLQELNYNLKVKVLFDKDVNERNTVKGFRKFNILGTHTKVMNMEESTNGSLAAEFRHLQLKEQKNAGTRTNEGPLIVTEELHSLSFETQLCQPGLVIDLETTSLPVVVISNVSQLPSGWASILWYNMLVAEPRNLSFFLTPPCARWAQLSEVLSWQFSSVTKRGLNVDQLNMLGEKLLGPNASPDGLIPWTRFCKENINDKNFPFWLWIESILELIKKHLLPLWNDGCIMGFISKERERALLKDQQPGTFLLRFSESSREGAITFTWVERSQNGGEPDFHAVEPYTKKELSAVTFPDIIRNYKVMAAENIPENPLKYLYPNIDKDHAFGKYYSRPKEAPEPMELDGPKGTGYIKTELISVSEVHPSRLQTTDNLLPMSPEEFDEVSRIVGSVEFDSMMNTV

[4] = molecular target: Signal transducer and activator of transcription 3 (Mus musculus, UniProt P42227); experiment: Inhibition of 5-carboxyfluorescein-GpYLPQTV-NH2 binding to mouse STAT3 (127 to 722 residues) expressed in Escherichia coli Rosetta BL21 DE3 pre-incubated for 1 hr before fluorescent-labelled peptide addition by fluorescence polarization assay
Sequence of Signal transducer and activator of transcription 3 (P42227 whole entry, the tested form may be a part): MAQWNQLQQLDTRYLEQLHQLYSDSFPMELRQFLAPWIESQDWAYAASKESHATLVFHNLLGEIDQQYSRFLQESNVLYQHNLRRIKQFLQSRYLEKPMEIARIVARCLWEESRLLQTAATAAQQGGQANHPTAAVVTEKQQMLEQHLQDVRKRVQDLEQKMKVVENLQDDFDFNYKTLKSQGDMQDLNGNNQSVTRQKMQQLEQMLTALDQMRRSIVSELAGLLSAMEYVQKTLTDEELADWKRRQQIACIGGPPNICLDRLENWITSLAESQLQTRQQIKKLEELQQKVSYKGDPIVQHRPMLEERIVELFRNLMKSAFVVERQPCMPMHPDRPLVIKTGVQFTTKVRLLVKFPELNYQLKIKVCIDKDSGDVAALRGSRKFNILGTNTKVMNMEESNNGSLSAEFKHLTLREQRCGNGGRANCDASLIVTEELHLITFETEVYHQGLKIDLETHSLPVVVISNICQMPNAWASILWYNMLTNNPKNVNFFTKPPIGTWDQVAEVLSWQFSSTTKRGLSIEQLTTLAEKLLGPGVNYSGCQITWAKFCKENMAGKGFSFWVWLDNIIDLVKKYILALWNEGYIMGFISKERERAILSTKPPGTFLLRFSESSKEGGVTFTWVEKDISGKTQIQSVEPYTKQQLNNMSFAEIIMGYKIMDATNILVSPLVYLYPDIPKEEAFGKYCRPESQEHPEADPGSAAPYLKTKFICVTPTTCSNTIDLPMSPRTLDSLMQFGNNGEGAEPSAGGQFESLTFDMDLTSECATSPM

[5] = molecular target: T4, Signal transducer and activator of transcription 5B (Homo sapiens, UniProt P51692); experiment: Inhibition of 5-carboxyfluorescein-GpYLVLDKW-OH binding to STAT5B SH2 domain (unknown origin) pre-incubated for 1 hr before fluorescent-labelled peptide addition by fluorescence polarization assay
T4 sequence (P51692 whole entry): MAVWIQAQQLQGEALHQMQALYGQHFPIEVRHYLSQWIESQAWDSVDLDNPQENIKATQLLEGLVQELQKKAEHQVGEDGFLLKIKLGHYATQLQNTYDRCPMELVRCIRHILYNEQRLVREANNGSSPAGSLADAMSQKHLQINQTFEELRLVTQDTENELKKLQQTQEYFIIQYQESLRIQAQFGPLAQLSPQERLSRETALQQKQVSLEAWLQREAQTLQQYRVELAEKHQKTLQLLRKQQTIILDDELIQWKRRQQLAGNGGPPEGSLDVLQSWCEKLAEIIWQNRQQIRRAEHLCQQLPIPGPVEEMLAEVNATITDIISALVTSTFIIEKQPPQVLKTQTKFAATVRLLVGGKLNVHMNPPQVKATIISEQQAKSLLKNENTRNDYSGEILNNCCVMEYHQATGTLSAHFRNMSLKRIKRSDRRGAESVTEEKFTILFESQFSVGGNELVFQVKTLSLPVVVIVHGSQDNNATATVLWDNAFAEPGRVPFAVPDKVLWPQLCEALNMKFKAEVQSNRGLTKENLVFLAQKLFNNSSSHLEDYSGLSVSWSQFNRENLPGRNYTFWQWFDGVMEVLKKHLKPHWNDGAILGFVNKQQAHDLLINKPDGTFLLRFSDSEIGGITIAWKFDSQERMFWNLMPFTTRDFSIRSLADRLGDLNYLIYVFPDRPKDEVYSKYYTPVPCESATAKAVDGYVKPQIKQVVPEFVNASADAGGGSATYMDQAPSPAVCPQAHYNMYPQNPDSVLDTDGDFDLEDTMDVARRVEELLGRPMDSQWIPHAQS

Row | SMILES | IC50 [1] [µM] | inhibition [2] | IC50 [3] [µM] | IC50 [4] [µM] | IC50 [5] [µM]
1 | O=C(Nc1cc(C(=O)Nc2ccc(S(=O)(=O)O)cc2S(=O)(=O)O)cc(C(=O)Nc2ccc(S(=O)(=O)O)cc2S(=O)(=O)O)c1)Nc1cc(C(=O)Nc2ccc(S(=O)(=O)O)cc2S(=O)(=O)O)cc(C(=O)Nc2ccc(S(=O)(=O)O)cc2S(=O)(=O)O)c1 | 1.4 | Active | 7.9 | > 100 | 2.5
2 | O=C(Nc1cccc(C(=O)Nc2ccc(S(=O)(=O)O)c3cc(S(=O)(=O)O)cc(S(=O)(=O)O)c23)c1)Nc1cccc(C(=O)Nc2ccc(S(=O)(=O)O)c3cc(S(=O)(=O)O)cc(S(=O)(=O)O)c23)c1 | 8.8 | Active | 33.2 | > 100 | 12.7
3 | Cc1ccc(C(=O)Nc2ccc(S(=O)(=O)O)c3cc(S(=O)(=O)O)cc(S(=O)(=O)O)c23)cc1NC(=O)c1cccc(NC(=O)Nc2cccc(C(=O)Nc3cc(C(=O)Nc4ccc(S(=O)(=O)O)c5cc(S(=O)(=O)O)cc(S(=O)(=O)O)c45)ccc3C)c2)c1 [SURAMIN HEXASODIUM] | 9.4 | Active | 9.1 | > 100 | 10.4
